# Legend:
# Type in all cases: cell-based
# [1] = tested on: primary cells from kidney tissues of human ADPKD patients; assay: Inhibition of three-dimensional cyst formation using primary cells from kidney tissue of human ADPKD patient; conditions: 168 h, test compound 30 μM, forskolin + ITS stimulation, 7 days 3D culture, average N=3, read-out: Inhibition rate (%) of cyst formation
# Procedure: Primary cells were isolated from kidney tissues of human ADPKD patients. Under two-dimensions, the isolated cells were cultured for 2 days using DMEM/F-12 (Thermo Fisher Scientific, Inc.) supplemented with 10% FBS. Subsequently, three-dimensional culture was performed for 7 days using 3D Ready Atelocollagen (KOKEN CO., LTD.). During three-dimensional culture, 50 µM forskolin (Sigma-Aldrich Co. LLC) and ITS liquid media supplements (Sigma-Aldrich Co. LLC) were added as stimulating agents to some of the wells to form cysts, and a test compound was added at the final concentration of 30 μM. The test compound was also added to other wells at the final concentration of 30 μM. After 7 days of three-dimensional culture, it was fixed with 4% paraformaldehyde (Thermo Fisher Scientific, Inc.), and nucleic acid staining and cell membrane staining were performed with Hoechst 33342 (Thermo Fisher Scientific, Inc.) and CellLight Plasma Membrane-RFP, BacMam 2.0 (Thermo Fisher Scientific, Inc.). Three-dimensional imaging and volume analysis were performed using Operetta CLS and image analysis software Harmony (PerkinElmer Japan G.K.). The inhibition rate was determined by the following formula.
# human NaPi-IIb = target: T1, human NaPi-IIb (Homo sapiens, UniProt O95436); assay: 33PO4 uptake inhibition in CHO cells expressing human NaPi-IIb; conditions: CHO cells transiently expressing human NaPi-IIb, pH 6.5
# T1 construct: expressed in transfected cells; host or cells: CHO cells, transient transfection with Fugene HD
# T1 sequence (O95436 1-690): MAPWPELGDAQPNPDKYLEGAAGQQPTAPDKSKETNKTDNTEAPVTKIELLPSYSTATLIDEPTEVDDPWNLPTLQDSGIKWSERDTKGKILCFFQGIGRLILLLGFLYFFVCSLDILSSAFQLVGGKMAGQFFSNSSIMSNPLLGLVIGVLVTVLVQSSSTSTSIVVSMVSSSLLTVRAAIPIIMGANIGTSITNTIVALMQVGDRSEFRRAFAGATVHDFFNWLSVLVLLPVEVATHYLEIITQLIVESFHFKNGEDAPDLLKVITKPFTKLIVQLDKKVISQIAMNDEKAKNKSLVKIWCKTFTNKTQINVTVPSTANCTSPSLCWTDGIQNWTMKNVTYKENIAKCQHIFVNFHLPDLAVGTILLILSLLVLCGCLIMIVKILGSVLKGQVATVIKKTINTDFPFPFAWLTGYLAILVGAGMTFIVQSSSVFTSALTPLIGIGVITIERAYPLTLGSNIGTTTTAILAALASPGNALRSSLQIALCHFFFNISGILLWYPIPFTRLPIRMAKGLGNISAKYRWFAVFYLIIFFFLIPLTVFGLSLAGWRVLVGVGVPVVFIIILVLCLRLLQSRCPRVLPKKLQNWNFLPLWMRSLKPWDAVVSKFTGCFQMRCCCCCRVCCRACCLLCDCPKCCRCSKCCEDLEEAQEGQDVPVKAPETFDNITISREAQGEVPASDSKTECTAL
# Procedure: For transient expression, human NaPi-IIb expression plasmids, human PiT1 expression plasmids, human PiT2 expression plasmids, and Fugene HD Transfection (Promega Corporation) were added to CHO cells using a 96-well plate, and the plate was incubated in a C02 incubator for 16 hours. The medium was replaced with buffer A (145 mM choline chloride, 3 mM KCl, 1 mM CaCl2), 0.5 mM MgCl2, 5 mM glucose, 5 mM MES, (pH 6.5)), and then replaced with buffer B (145 mM NaCl, 3 mM KCl, 1 mM CaCl2, 0.5 mM MgCl2, 5 mM glucose, 5 mM MES (pH 6.5)) to which a test compound was added at the final concentration of 0.01, 0.03, 0.1, 0.3, 1, 3, 10, or 30 μM, buffer A to which DMSO was added, or buffer B to which DMSO was added. After a certain time, a 1/20 amount of buffer A containing ^33PO4 (PerkinElmer Japan G. K.) was added and reacted at room temperature. After washing with ice-cooled buffer A, a liquid scintillator (MicroScint™-20, item number 6013621, PerkinElmer Japan G.K.) was added, and the ^33PO4 uptake amount was measured with the top count (Top Count NXT, PerkinElmer Japan G.K.). The inhibition rate was determined by the following formula. Here, a certain time was set to 10 minutes. The phrase “a 1/20 amount of buffer A containing ^33PO4 (PerkinElmer Japan G.K.) was added” refers to “buffer A containing ^33PO4 (PerkinElmer Japan G.K.) was added in an amount of 1/20 of the amount of solution filling the medium”.
# The 50% ^33PO4-uptake inhibition concentrations (ICs) (UM) in a cell expressing human NaPi-Ilb, human PiT1, and human PiT2 were calculated from a straight line through two points sandwiching 50% inhibition rate. It should be noted that compounds 1 and 2 were not measured for baman PiT1 and human PiT2, which was indicated as “-” in Table 1.
# human PiT1 = target: T2, human PiT1 (Homo sapiens, UniProt Q8WUM9); assay: 33PO4 uptake inhibition in CHO cells expressing human PiT1; conditions: CHO cells transiently expressing human PiT1, pH 6.5
# T2 construct: expressed in transfected cells; host or cells: CHO cells, transient transfection with Fugene HD
# T2 sequence (Q8WUM9 1-679): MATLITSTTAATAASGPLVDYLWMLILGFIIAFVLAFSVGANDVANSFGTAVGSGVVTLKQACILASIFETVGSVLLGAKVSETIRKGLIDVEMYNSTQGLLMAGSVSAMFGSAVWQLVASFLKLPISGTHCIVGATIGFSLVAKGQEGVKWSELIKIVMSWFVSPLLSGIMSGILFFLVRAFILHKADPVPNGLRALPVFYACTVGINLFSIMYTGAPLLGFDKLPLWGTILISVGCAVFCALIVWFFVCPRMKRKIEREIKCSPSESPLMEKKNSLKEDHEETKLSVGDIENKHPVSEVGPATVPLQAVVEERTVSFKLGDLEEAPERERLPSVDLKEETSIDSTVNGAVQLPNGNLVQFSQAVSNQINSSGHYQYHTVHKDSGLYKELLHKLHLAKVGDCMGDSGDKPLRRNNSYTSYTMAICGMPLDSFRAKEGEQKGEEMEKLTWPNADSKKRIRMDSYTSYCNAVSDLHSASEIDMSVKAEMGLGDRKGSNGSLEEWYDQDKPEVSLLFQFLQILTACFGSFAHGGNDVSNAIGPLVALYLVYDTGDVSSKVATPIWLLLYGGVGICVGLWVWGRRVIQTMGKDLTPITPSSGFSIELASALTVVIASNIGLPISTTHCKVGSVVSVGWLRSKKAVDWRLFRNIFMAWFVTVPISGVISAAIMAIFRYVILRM
# Procedure: (§1) For transient expression, human NaPi-IIb expression plasmids, human PiT1 expression plasmids, human PiT2 expression plasmids, and Fugene HD Transfection (Promega Corporation) were added to CHO cells using a 96-well plate, and the plate was incubated in a C02 incubator for 16 hours. The medium was replaced with buffer A (145 mM choline chloride, 3 mM KCl, 1 mM CaCl2), 0.5 mM MgCl2, 5 mM glucose, 5 mM MES, (pH 6.5)), and then replaced with buffer B (145 mM NaCl, 3 mM KCl, 1 mM CaCl2, 0.5 mM MgCl2, 5 mM glucose, 5 mM MES (pH 6.5)) to which a test compound was added at the final concentration of 0.01, 0.03, 0.1, 0.3, 1, 3, 10, or 30 μM, buffer A to which DMSO was added, or buffer B to which DMSO was added. After a certain time, a 1/20 amount of buffer A containing ^33PO4 (PerkinElmer Japan G. K.) was added and reacted at room temperature. After washing with ice-cooled buffer A, a liquid scintillator (MicroScint™-20, item number 6013621, PerkinElmer Japan G.K.) was added, and the ^33PO4 uptake amount was measured with the top count (Top Count NXT, PerkinElmer Japan G.K.). The inhibition rate was determined by the following formula. Here, a certain time was set to 10 minutes. […]
# human PiT2 = target: T3, human PiT2 (Homo sapiens, UniProt Q08357); assay: 33PO4 uptake inhibition in CHO cells expressing human PiT2; conditions: CHO cells transiently expressing human PiT2, pH 6.5
# T3 construct: expressed in transfected cells; host or cells: CHO cells, transient transfection with Fugene HD
# T3 sequence (Q08357 1-652): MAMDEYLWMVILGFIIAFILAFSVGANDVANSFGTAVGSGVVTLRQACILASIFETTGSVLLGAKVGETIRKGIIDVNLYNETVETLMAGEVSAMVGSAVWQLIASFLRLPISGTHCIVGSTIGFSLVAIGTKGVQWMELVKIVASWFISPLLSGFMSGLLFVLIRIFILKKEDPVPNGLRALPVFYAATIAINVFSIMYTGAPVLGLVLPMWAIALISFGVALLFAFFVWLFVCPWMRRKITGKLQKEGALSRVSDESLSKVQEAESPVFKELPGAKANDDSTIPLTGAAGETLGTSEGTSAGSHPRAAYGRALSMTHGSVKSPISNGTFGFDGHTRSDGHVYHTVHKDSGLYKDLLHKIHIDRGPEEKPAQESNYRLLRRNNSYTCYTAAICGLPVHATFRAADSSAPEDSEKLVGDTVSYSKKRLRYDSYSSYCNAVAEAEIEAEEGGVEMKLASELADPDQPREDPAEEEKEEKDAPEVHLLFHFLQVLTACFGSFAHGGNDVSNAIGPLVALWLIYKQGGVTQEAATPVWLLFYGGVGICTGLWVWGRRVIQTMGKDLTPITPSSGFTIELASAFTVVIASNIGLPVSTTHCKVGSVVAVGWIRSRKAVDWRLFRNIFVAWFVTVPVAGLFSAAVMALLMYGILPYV
# Procedure: as §1
Structure (SMILES),inhibition at 30 µM [1] [%],IC50 (human NaPi-IIb) [µM],IC50 (human PiT1) [µM],IC50 (human PiT2) [µM]
"O=c1[nH]nc(Sc2ccc(C(F)(F)F)cn2)n1-c1cc(Cl)c(Cl)cc1C(F)(F)F [Compound 1, 4-[4,5-Dichloro-2-(trifluoromethyl)phenyl]-3-[5-(trifluoromethyl)pyridin-2-yl]sulfanyl-1H-1,2,4-triazol-5-one]",98.2,7.9,,
"C[C@]12CCCN1N(Cc1cccc(Cl)c1F)C(=O)C(C(=O)Nc1cc(F)c(Br)c(F)c1)=C2O [Compound 2, (4aR)-N-(4-Bromo-3,5-difluorophenyl)-1-[(3-chloro-2-fluorophenyl)methyl]-4-hydroxy-4a-methyl-2-oxo-6,7-dihydro-5H-pyrrolo[1,2-b]pyridazine-3-carboxamide]",100,2.9,,
"O=C(Nc1ccc(Cl)cc1C(=O)c1cnn(-c2ccc(Cl)c(C(F)(F)F)c2)c1)c1cccc(CN2CCC(N3CCCCC3)CC2)c1 [Compound 3, N-[4-Chloro-2-[1-[4-chloro-3-(trifluoromethyl)phenyl]pyra-zole-4-carbonyl]phenyl]-3-[(4-piperidin-1-ylpiperidin-1-yl)methyl]benzamide]",100,3.8,> 30,> 30

# — US20250302833A1, “PHARMACEUTICAL COMPOSITION FOR TREATING OR PREVENTING CYSTIC DISEASE” (CHUGAI SEIYAKU KABUSHIKI KAISHA, priority 2022, published 2025)
